Laboratory results published in ChEMBL document CHEMBL1135161, “Antimalarial activities of ring-substituted bioimidazoles” (Bioorg Med Chem Lett, 2002).
Active and inactive are the calls of the source. No cut-off for these calls is given here.

Key:
Plasmodium falciparum [1] = assay: In vitro antimalarial activity against chloroquine-sensitive Plasmodium falciparum; assay type: functional, organism-based
Plasmodium falciparum [2] = assay: In vitro antimalarial activity against chloroquine-resistant Plasmodium falciparum; assay type: functional, organism-based
Mus musculus [3] = assay: In vivo antimalarial activity of compound against Plasmodium berghei infected in mice (Mus musculus) model; Inactive; assay type: functional, organism-based
Mus musculus [4] = assay: In vivo antimalarial activity of compound against Plasmodium berghei infected in mice (Mus musculus) model. Compound active at given dose.; assay type: functional

| SMILES | IC50 (Plasmodium falciparum [1]) | also measured |
| --- | --- | --- |
| CC(C)(C)c1nc(CC(N)C(=O)O)cn1Cc1ccccc1 (stereo not given) | 157 µM | – |
| CC(C)n1cnc(CC(N)C(=O)O)c1 (stereo not given) | 120 µM | – |
| NCCc1c[nH]c(C2CCC2)n1 | 367 µM | – |
| CC(C)c1ncc(CCN)n1Cc1ccccc1 | 188 µM | – |
| CC(C)c1nc(CC(N)C(=O)O)cn1C (stereo not given) | > 500 µM | – |
| CC(C)(C)c1nc(CC(N)C(=O)O)c[nH]1 (stereo not given) | 25.8 µM | IC50 (Plasmodium falciparum [2]): 3.85 µM; DOSE (Mus musculus [3]): inactive |
| NC(Cc1c[nH]c(C2CCC2)n1)C(=O)O (stereo not given) | 255 µM | – |
| Cn1cc(CCN)nc1C(C)(C)C | 459 µM | – |
| NC(Cc1c[nH]c(C2CCCC2)n1)C(=O)O (stereo not given) | 276 µM | – |
| NC(Cc1cnc(C23CC4CC(CC(C4)C2)C3)n1Cc1ccccc1)C(=O)O (stereo not given) | > 500 µM | – |
| NCCc1c[nH]c(C2CCCC2)n1 | 489 µM | – |
| CCn1cnc(CC(N)C(=O)O)c1 (stereo not given) | > 500 µM | – |
| Cn1cc(CCN)nc1C1CCCCC1 | > 500 µM | – |
| CC(C)c1nc(CC(N)C(=O)O)cn1Cc1ccccc1 (stereo not given) | 89 µM | IC50 (Plasmodium falciparum [2]): 245 µM; DOSE (Mus musculus [3]): inactive |
| CCc1nc(CCN)c[nH]1 | > 500 µM | – |
| Cn1c(CC(N)C(=O)O)cnc1C(C)(C)C (stereo not given) | > 500 µM | – |
| CCc1nc(CC(N)C(=O)O)c[nH]1 (stereo not given) | > 500 µM | – |
| NCCc1c[nH]c(C2CCCCC2)n1 | > 500 µM | – |
| NC(Cc1c[nH]c(C2CCCCC2)n1)C(=O)O (stereo not given) | 350 µM | – |
| CCn1cnc(CCN)c1 | > 500 µM | – |
| CC(C)c1nc(CC(N)C(=O)O)c[nH]1 (stereo not given) | 6.3 µM | IC50 (Plasmodium falciparum [2]): 6.5 µM; Dose (Mus musculus [4]): 100 mg/kg |

| SMILES | IC50 (Plasmodium falciparum [1]) | also measured |
| --- | --- | --- |
| Cn1cc(CC(N)C(=O)O)nc1C(C)(C)C (stereo not given) | > 500 µM | – |
| NC(Cc1c[nH]c(C23CC4CC(CC(C4)C2)C3)n1)C(=O)O (stereo not given) | 450 µM | – |
| NCCc1cn(Cc2ccccc2)cn1 | 20.7 µM | IC50 (Plasmodium falciparum [2]): 22.5 µM; DOSE (Mus musculus [3]): inactive |
| NCCc1cnc(C23CC4CC(CC(C4)C2)C3)n1Cc1ccccc1 | > 500 µM | – |
| CC(C)c1ncc(CC(N)C(=O)O)n1Cc1ccccc1 (stereo not given) | 355 µM | – |
| CC(C)(C)c1ncc(CC(N)C(=O)O)n1Cc1ccccc1 (stereo not given) | 399 µM | – |
| CC(C)n1cnc(CCN)c1 | 9.6 µM | IC50 (Plasmodium falciparum [2]): 10.4 µM; Dose (Mus musculus [4]): 100 mg/kg |
| CC(C)c1nc(CCN)cn1C | 387 µM | – |
| Cn1cnc(CCN)c1 [N-METHYLHISTAMINE] | > 500 µM | – |
| NCCc1cnc(C2CCCCC2)n1Cc1ccccc1 | > 500 µM | – |
| Cc1nc(CC(N)C(=O)O)c[nH]1 (stereo not given) | > 500 µM | – |
| C=CCn1cnc(CCN)c1 | 176 µM | – |
| Cc1ncc(CCN)[nH]1 [2-METHYLHISTAMINE] | > 500 µM | – |
| Cn1cc(CC(N)C(=O)O)nc1C1CCCCC1 (stereo not given) | > 500 µM | – |
| Cn1cnc(CC(N)C(=O)O)c1 (stereo not given) | > 500 µM | – |
| NC(Cc1cn(Cc2ccccc2)cn1)C(=O)O (stereo not given) | 360 µM | – |
| CC(C)(C)c1ncc(CCN)n1Cc1ccccc1 | 233 µM | – |
| CC(C)(C)c1nc(CCN)c[nH]1 | 15.5 µM | IC50 (Plasmodium falciparum [2]): 30.3 µM; DOSE (Mus musculus [3]): inactive |
| NC(Cc1cnc(C2CCCCC2)n1Cc1ccccc1)C(=O)O (stereo not given) | > 500 µM | – |
| CC(C)c1nc(CCN)c[nH]1 | 4.7 µM | IC50 (Plasmodium falciparum [2]): 4.8 µM; Dose (Mus musculus [4]): 100 mg/kg |
